The values that follow come from paper PMC12150283, “Synthesis of new Ag(I) and Cd(II) hydrozanomide-based complexes with antibacterial and anticancer properties” (RSC Advances, 2025).

In test [1] the test system is S. Typhimurium ATCC 14028. The experiment in a line: Diffusion-well method, inhibition zones. The class given is cell-based, Salmonella typhimurium. The settings on record: 500 µg/mL, wells 10 mm. The procedure:
The antibacterial activity of tested samples was assessed against both gram-positive bacteria (Staphylococcus aureus ATCC 25923, Staphylococcus aureus ATCC 6538, Staphylococcus epidermidis ATCC 12228, Enterococcus faecalis ATCC 29212, Listeria monocytogenes ATCC 19115, Bacillus subtilis ATCC 6633, Bacillus cereus ATCC 10876) and gram-negative bacteria (Escherichia coli ATCC 10530, Salmonella typhimurium ATCC 14028). Antibacterial properties were evaluated using both the dilution method (employing DMSO and 96-well plates) and the diffusion-well method (using Mueller Hinton Agar, Merck, Germany).
24 hour bacterial cultures with a density of 1–2 × 10^8 CFU mL^−1 were plated (0.1 mL) on Mueller–Hinton Agar (Merck, Germany). Subsequently, wells with a diameter of 10 mm were cut out from and filled with 100 μL of the tested compound at a concentration of 10–500 μg mL^−1 (diluted in DMSO). After an 18-hour incubation at either 30 °C (for Bacillus ssp.) or 37 °C (for other tested microorganisms), the inhibition zones around the wells were measured, and the results were expressed in millimetres (Table S9 ^†).

Test [2] deals with normal skin fibroblast BJ cells. The experiment in a line: MTT cell viability assay. The class given is cell-based, human. The settings on record: BJ normal fibroblasts; 48 hours of incubation. The method in brief: (§1)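 Cells seeded at 2 × 10^4/well, left 24 h, then treated with compound over 1–50 μM for 48 h. Viability was read by MTT colorimetry in triplicate, and IC50 was taken as the concentration lowering viability by 50%.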
In general terms: Tetrazolium assays rely on reduction of a dye to a coloured formazan, in cell work by metabolically active cells.

Test [3] concerns glioblastoma U87 cells. The experiment in a line: MTT cell viability assay. The class given is cell-based, human. The settings on record: 48 hours of incubation. The essentials: as §1
Test [4] deals with glioblastoma LN-229 cells. The test can be described thus: MTT cell viability assay. The class given is cell-based, human. As to conditions: 48 hours of incubation. The essentials:
as §1

One may read the IC50 as the concentration that gives 50% inhibition. Regarding `NC(=NN=Cc1ccccc1)c1cncc(Cl)n1.O.O=[N+]([O-])[O-].[Ag+]` [Complex 1, AgL1NO3 × H2O], the Inhibition zone in test [1] was 17 mm. Also, the IC50 amounted to 20.5 ± 5.21 µM in test [2], 8.15 ± 2.67 µM in test [3] and 25.2 ± 3.75 µM in test [4].
